# Measured values from PubChem BioAssay AID1963844 (Molecular Pharmacology Branch, DTP, NCI, 2024).
# System: 422866-222-R5-J1-PDC complex spheroid viability
# Assay: Anticancer human tumor 422866-222-R5-J1-PDC patient-derived pancreatic adenocarcinoma cell line growth inhibition [POLQ]
# Conditions: for IC50: curve of first compound; for viability, T/C: stronger effect = lower value
# How it was run: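 Growth inhibition in 3D: complex spheroids (tumor PDC, HUVEC, MSC) treated with POLQ inhibitor combinations; where Cmax unknown, highest tested concentration 10 microM, except SN-38 at 1 microM.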
# [1] = second compound 0.0316 µM, first compound 0.0316 µM
# [2] = second compound 0.0316 µM, first compound 0.1 µM
# [3] = second compound 0.0316 µM, first compound 0.316 µM
# [4] = second compound 0.0316 µM, first compound 1 µM
# [5] = second compound 0.0316 µM, first compound 3.16 µM
# [6] = second compound 0.0316 µM, first compound 10 µM
# [7] = second compound 0.1 µM, first compound 0.0316 µM
# [8] = second compound 0.1 µM, first compound 0.1 µM
# [9] = second compound 0.1 µM, first compound 0.316 µM
# [10] = second compound 0.1 µM, first compound 1 µM
# [11] = second compound 0.1 µM, first compound 3.16 µM
# [12] = second compound 0.1 µM, first compound 10 µM
# [13] = second compound 0.316 µM, first compound 0.0316 µM
# [14] = second compound 0.316 µM, first compound 0.1 µM
# [15] = second compound 0.316 µM, first compound 0.316 µM
# [16] = second compound 0.316 µM, first compound 1 µM
# [17] = second compound 0.316 µM, first compound 3.16 µM
# [18] = second compound 0.316 µM, first compound 10 µM
# [19] = second compound 1 µM, first compound 0.0316 µM
# [20] = second compound 1 µM, first compound 0.1 µM
# [21] = second compound 1 µM, first compound 0.316 µM
# [22] = second compound 1 µM, first compound 1 µM
# [23] = second compound 1 µM, first compound 3.16 µM
# [24] = second compound 1 µM, first compound 10 µM
# [25] = second compound 3.16 µM, first compound 0.0316 µM
# [26] = second compound 3.16 µM, first compound 0.1 µM
# [27] = second compound 3.16 µM, first compound 0.316 µM
# [28] = second compound 3.16 µM, first compound 1 µM
# [29] = second compound 3.16 µM, first compound 3.16 µM
# [30] = second compound 3.16 µM, first compound 10 µM
# [31] = second compound 10 µM, first compound 0.0316 µM
# [32] = second compound 10 µM, first compound 0.1 µM
# [33] = second compound 10 µM, first compound 0.316 µM
# [34] = second compound 10 µM, first compound 1 µM
# [35] = second compound 10 µM, first compound 3.16 µM
# [36] = second compound 10 µM, first compound 10 µM
# 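Note: spheroids exposed to compounds for one week before readout.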
# 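Throughout, for viability, T/C: percent of DMSO vehicle wells luminescence so 100% = untreated viability.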
compound,measurement,setting,value
COc1cc(C2c3cc4c(cc3C(OC3OC5COC(C)OC5C(O)C3O)C3COC(=O)C23)OCO4)cc(OC)c1O (stereo not given) + Cc1cccc(N(C)C(=O)C2C(O)CCN2c2nc(C)cc(C(F)(F)F)c2C#N)c1,IC50,second compound 0.0316 µM,1230 nM
same,IC50,second compound 0.1 µM,1650 nM
same,IC50,second compound 0.316 µM,1360 nM
same,IC50,second compound 1 µM,735 nM
same,IC50,second compound 3.16 µM,714 nM
same,IC50,second compound 10 µM,876 nM
same,"viability, T/C",[1],96.8%
same,"viability, T/C",[2],84.3%
same,"viability, T/C",[3],69%
same,"viability, T/C",[4],53.5%
same,"viability, T/C",[5],37.9%
same,"viability, T/C",[6],33.2%
same,"viability, T/C",[7],101%
same,"viability, T/C",[8],92.9%
same,"viability, T/C",[9],63.3%
same,"viability, T/C",[10],58.6%
same,"viability, T/C",[11],44.2%
same,"viability, T/C",[12],31.8%
same,"viability, T/C",[13],110%
same,"viability, T/C",[14],92.7%
same,"viability, T/C",[15],68.8%
same,"viability, T/C",[16],50.6%
same,"viability, T/C",[17],47.7%
same,"viability, T/C",[18],35.8%
same,"viability, T/C",[19],105%
same,"viability, T/C",[20],94.7%
same,"viability, T/C",[21],61.8%
same,"viability, T/C",[22],46.5%
same,"viability, T/C",[23],38.5%
same,"viability, T/C",[24],29.7%
same,"viability, T/C",[25],103%
same,"viability, T/C",[26],88.8%
same,"viability, T/C",[27],56.6%
same,"viability, T/C",[28],49.6%
same,"viability, T/C",[29],40.1%
same,"viability, T/C",[30],33.7%
same,"viability, T/C",[31],91.5%
same,"viability, T/C",[32],77.1%
same,"viability, T/C",[33],56%
same,"viability, T/C",[34],49.9%
same,"viability, T/C",[35],45.1%
same,"viability, T/C",[36],37%
O=C(Nc1ccc(O)c(NS(=O)(=O)c2ccc(F)cc2)c1)c1ccc(-c2ccccc2)cc1 + Nc1ccc(C#CCN(C(=O)Cc2ncc(C(F)(F)F)cc2C(F)(F)F)c2ccc(F)cc2)nn1,IC50,second compound 0.0316 µM,> 10000 nM
same,IC50,second compound 0.1 µM,> 10000 nM
same,IC50,second compound 0.316 µM,> 10000 nM
same,IC50,second compound 1 µM,> 10000 nM
same,IC50,second compound 3.16 µM,> 10000 nM
same,IC50,second compound 10 µM,> 10000 nM
same,"viability, T/C",[1],98.8%
same,"viability, T/C",[2],84.9%
same,"viability, T/C",[3],81.6%
same,"viability, T/C",[4],86.9%
same,"viability, T/C",[5],83.7%
same,"viability, T/C",[6],113%
same,"viability, T/C",[7],105%
same,"viability, T/C",[8],94.3%
same,"viability, T/C",[9],97.1%
same,"viability, T/C",[10],90.5%
same,"viability, T/C",[11],99.8%
same,"viability, T/C",[12],123%
same,"viability, T/C",[13],88.7%
same,"viability, T/C",[14],90%
same,"viability, T/C",[15],94.2%
same,"viability, T/C",[16],89.9%
same,"viability, T/C",[17],97.3%
same,"viability, T/C",[18],116%
same,"viability, T/C",[19],107%
same,"viability, T/C",[20],84.5%
same,"viability, T/C",[21],92.6%
same,"viability, T/C",[22],87.9%
same,"viability, T/C",[23],88.6%
same,"viability, T/C",[24],117%
same,"viability, T/C",[25],107%
same,"viability, T/C",[26],99%
same,"viability, T/C",[27],99.6%
same,"viability, T/C",[28],78.7%
same,"viability, T/C",[29],103%
same,"viability, T/C",[30],109%
same,"viability, T/C",[31],105%
same,"viability, T/C",[32],85.2%
same,"viability, T/C",[33],80.8%
same,"viability, T/C",[34],93.8%
same,"viability, T/C",[35],101%
same,"viability, T/C",[36],102%
C=CCn1c(=O)c2cnc(Nc3ccc(N4CCN(C)CC4)cc3)nc2n1-c1cccc(C(C)(C)O)n1 + COC1C(OC(N)=O)C(O)C(Oc2ccc3c(O)c(NC(=O)c4ccc(O)c(CC=C(C)C)c4)c(=O)oc3c2C)OC1(C)C,IC50,second compound 0.0316 µM,418 nM
same,IC50,second compound 0.1 µM,304 nM
same,IC50,second compound 0.316 µM,493 nM
same,IC50,second compound 1 µM,471 nM
same,IC50,second compound 3.16 µM,538 nM
same,IC50,second compound 10 µM,356 nM
same,"viability, T/C","second compound 0.0316 µM, first compound 0.00316 µM",91.1%
same,"viability, T/C","second compound 0.0316 µM, first compound 0.01 µM",106%
same,"viability, T/C",[1],96.3%
same,"viability, T/C",[2],93.2%
same,"viability, T/C",[3],54.3%
same,"viability, T/C",[4],36.6%
same,"viability, T/C","second compound 0.1 µM, first compound 0.00316 µM",98.8%
same,"viability, T/C","second compound 0.1 µM, first compound 0.01 µM",105%
same,"viability, T/C",[7],86.2%
same,"viability, T/C",[8],79.4%
same,"viability, T/C",[9],46.5%
same,"viability, T/C",[10],34.5%
same,"viability, T/C","second compound 0.316 µM, first compound 0.00316 µM",97.4%
same,"viability, T/C","second compound 0.316 µM, first compound 0.01 µM",101%
same,"viability, T/C",[13],103%
same,"viability, T/C",[14],84.4%
same,"viability, T/C",[15],59.1%
same,"viability, T/C",[16],36.6%
same,"viability, T/C","second compound 1 µM, first compound 0.00316 µM",94.8%
same,"viability, T/C","second compound 1 µM, first compound 0.01 µM",105%
same,"viability, T/C",[19],93.8%
same,"viability, T/C",[20],89.5%
same,"viability, T/C",[21],58%
same,"viability, T/C",[22],34.6%
same,"viability, T/C","second compound 3.16 µM, first compound 0.00316 µM",96.7%
same,"viability, T/C","second compound 3.16 µM, first compound 0.01 µM",100%
same,"viability, T/C",[25],91.5%
same,"viability, T/C",[26],79%
same,"viability, T/C",[27],59.1%
same,"viability, T/C",[28],39.7%
same,"viability, T/C","second compound 10 µM, first compound 0.00316 µM",95.7%
same,"viability, T/C","second compound 10 µM, first compound 0.01 µM",84.3%
same,"viability, T/C",[31],98.2%
same,"viability, T/C",[32],79.9%
same,"viability, T/C",[33],51.9%
same,"viability, T/C",[34],38.9%
Nc1ccn(C2OC(CO)C(O)C2(F)F)c(=O)n1 (stereo not given) + Cc1cccc(N(C)C(=O)C2C(O)CCN2c2nc(C)cc(C(F)(F)F)c2C#N)c1,IC50,second compound 0.0316 µM,98.9 nM
same,IC50,second compound 0.1 µM,76.6 nM
same,IC50,second compound 0.316 µM,82.4 nM
same,IC50,second compound 1 µM,119 nM
same,IC50,second compound 3.16 µM,154 nM
same,IC50,second compound 10 µM,120 nM
same,"viability, T/C",[1],77.9%
same,"viability, T/C",[2],50.4%
same,"viability, T/C",[3],40.4%
same,"viability, T/C",[4],36.1%
same,"viability, T/C",[5],36.1%
same,"viability, T/C",[6],42.9%
same,"viability, T/C",[7],68.8%
same,"viability, T/C",[8],43.2%
same,"viability, T/C",[9],40.5%
same,"viability, T/C",[10],38.6%
same,"viability, T/C",[11],35.5%
same,"viability, T/C",[12],35.4%
same,"viability, T/C",[13],69%
same,"viability, T/C",[14],45.3%
same,"viability, T/C",[15],40.3%
same,"viability, T/C",[16],38.1%
same,"viability, T/C",[17],35%
same,"viability, T/C",[18],34.8%
same,"viability, T/C",[19],68.7%
same,"viability, T/C",[20],51.6%
same,"viability, T/C",[21],41.4%
same,"viability, T/C",[22],37.3%
same,"viability, T/C",[23],38.6%
same,"viability, T/C",[24],40.2%
same,"viability, T/C",[25],83.7%
same,"viability, T/C",[26],54.2%
same,"viability, T/C",[27],41.9%
same,"viability, T/C",[28],43.2%
same,"viability, T/C",[29],37.8%
same,"viability, T/C",[30],38%
same,"viability, T/C",[31],68%
same,"viability, T/C",[32],51.9%
same,"viability, T/C",[33],45.2%
same,"viability, T/C",[34],39.9%
same,"viability, T/C",[35],38.9%
same,"viability, T/C",[36],48.5%
CCc1cc2c(N3CCc4c(cc(Cn5ccnc5)cc4-c4cn(C)nc4C(F)(F)F)C3=O)cc(C)nc2c(OC)n1 + Cc1cccc(N(C)C(=O)C2C(O)CCN2c2nc(C)cc(C(F)(F)F)c2C#N)c1,IC50,second compound 0.0316 µM,> 10000 nM
same,IC50,second compound 0.1 µM,> 10000 nM
same,IC50,second compound 0.316 µM,> 10000 nM
same,IC50,second compound 1 µM,> 10000 nM
same,IC50,second compound 3.16 µM,> 10000 nM
same,IC50,second compound 10 µM,> 10000 nM
same,"viability, T/C",[1],78.4%
same,"viability, T/C",[2],73.7%
same,"viability, T/C",[3],93.1%
same,"viability, T/C",[4],99.6%
same,"viability, T/C",[5],104%
same,"viability, T/C",[6],98%
same,"viability, T/C",[7],84.6%
same,"viability, T/C",[8],83.5%
same,"viability, T/C",[9],92.2%
same,"viability, T/C",[10],88.7%
same,"viability, T/C",[11],101%
same,"viability, T/C",[12],119%
same,"viability, T/C",[13],91.8%
same,"viability, T/C",[14],88.7%
same,"viability, T/C",[15],81.2%
same,"viability, T/C",[16],94.9%
same,"viability, T/C",[17],104%
same,"viability, T/C",[18],94.4%
same,"viability, T/C",[19],84.5%
same,"viability, T/C",[20],82.7%
same,"viability, T/C",[21],86.6%
same,"viability, T/C",[22],82.8%
same,"viability, T/C",[23],93.8%
same,"viability, T/C",[24],93.5%
same,"viability, T/C",[25],86.3%
same,"viability, T/C",[26],85.8%
same,"viability, T/C",[27],92.4%
same,"viability, T/C",[28],91.6%
same,"viability, T/C",[29],99.8%
same,"viability, T/C",[30],90.6%
same,"viability, T/C",[31],88.9%
same,"viability, T/C",[32],88.5%
same,"viability, T/C",[33],93.9%
same,"viability, T/C",[34],78.2%
same,"viability, T/C",[35],95.8%
same,"viability, T/C",[36],94.8%
